Measurements from patent publication US12187696B2, “Urea motif containing compounds and derivatives thereof as antibacterial drugs” (Technische Universität München, priority 2016, dated 2025).
Values after ≈ are worked out from the molar mass of the structure shown.

Assays:
[1] = test system: Staphylococcus aureus NCTC8325; test: Minimal inhibitory concentration (MIC) assay; assay type: cell-based; conditions: for MIC: Staphylococcus aureus NCTC8325, B medium
Description: Minimum inhibitory concentrations (MICs) represent the lowest concentration of sample that will inhibit the visible growth of a microorganism after overnight incubation, and was obtained by a 96 well plate-based assay (Thermo Scientific) with serial dilutions of the probes tested. […] Bacteria were diluted in fresh medium to a concentration of 10^5 CFU/mL. In the case of all other bacteria species tested, fresh media was inoculated 1/10000 and directly used for testing. Diluted bacterial cultures (99 μL) were added to various concentrations of probe (1 μL of the respective stock in DMSO). A growth control containing DMSO (1 μL) and cultivated medium (99 μL) and a sterile control containing fresh medium (100 μL) were run on every 96 well plate in triplicates. After incubation at 37° C. with gentle shaking (200 rpm) for 24 h, the dilution series was analysed for microbial growth, usually indicated by turbidity and/or a pellet of bacteria at the bottom of the well. The lowest concentration in the dilution series at which no growth of bacteria could be observed by eye was defined as the minimum inhibitory concentration (MIC) of the probe. MIC values were determined by three independent experiments with at least triplicate runs for each concentration. […] Both compounds were tested against various bacterial strains. […] The assay was performed as described above.

[2] = test system: Staphylococcus aureus USA300; test: Minimal inhibitory concentration (MIC) assay; assay type: cell-based; conditions: B medium
[3] = test system: MRSA ATCC 33591; test: Neutropenic murine thigh model; assay type: in vivo, S. aureus; conditions: 20 mg/kg orally 30 min, 4 and 8 h after inoculation; vs sham-treated mice
Description: PK/X17-1-150 (20 mg/kg) and the corresponding vehicle were administered orally after 30 min, 4 and 8 h after bacterial inoculation, whereas levofloxacin (5 mg/kg) and the corresponding vehicle were administered intraperitoneally after 2, 6 and 10 h after bacterial inoculation. N=6 for vehicle i.p., levofloxacin i.p. and for PK/X17-1-150; n=5 for vehicle p.o. Data are expressed as mean values±SD. **, p<0.01; ***, p<0.001.

[4] = test system: Enterobacter cloacae subsp. Cloacae; test: Minimal inhibitory concentration (MIC) assay; assay type: cell-based; conditions: B medium
[5] = test system: A549, HeLa, HepG2 and NIH/3T3 cells; test: Cytotoxicity assay (MTT); assay type: cell-based, human; conditions: 24 h incubation, various cell lines
Description: The MTT assay was performed in 96 well plates. A549, HeLa and HepG2 cells were seeded with 4000 cells/well, whereas NIH/3T3 cells were seeded with 2000 cells/well. Cells were grown to 30-40% confluence at 37° C. and 5% CO2 over a time span of 24 h. The medium was removed and 100 μL medium/well containing varying concentrations of the respective compound and a final DMSO concentration of 0.1% were added to the cells in triplicates and incubated at 37° C. and 5% CO2 for 24 h. 20 μL Thiazolyl blue tetrazolium bromide (5 mg/mL in PBS, Sigma Aldrich) were added to the cells and incubated at 37° C. and 5% CO2 for 4 h until complete consumption was observed. After removal of the medium, the resulting formazan was dissolved in 200 μL DMSO. Optical density was measured at 570 nm (562 nm) and background subtracted at 630 nm (620 nm) by a TECAN Infinite M200 Pro.

[6] = test system: S. aureus Mu50; test: Minimal inhibitory concentration (MIC) assay; assay type: cell-based; conditions: Staphylococcus aureus, B medium
[7] = test system: Acinetobacter baumannii; test: Minimal inhibitory concentration (MIC) assay; assay type: cell-based; conditions: B medium
[8] = test system: Staphylococcus aureus VA402525; test: Minimal inhibitory concentration (MIC) assay; assay type: cell-based; conditions: Staphylococcus aureus VA402525 (clinical isolate); B medium
[9] = test system: Staphylococcus aureus VA417350; test: Minimal inhibitory concentration (MIC) assay; assay type: cell-based; conditions: Staphylococcus aureus VA417350 (clinical isolate); B medium
[10] = test system: Mycobacterium smegmatis mc^2 155; test: Minimal inhibitory concentration (MIC) assay; assay type: cell-based; conditions: Mycolicibacterium smegmatis, MC^2155, LB medium
[11] = test system: S. aureus; test: Murine bloodstream infection model; assay type: in vivo; conditions: S. aureus-infected mice, 20 mg/kg, compared to vehicle control
Description: Bacterial loads in the heart (left) and liver (right) of S. aureus-infected mice treated with 20 mg/kg of PK/[…]-1-150 (squares) or vehicle alone (circles). Each symbol represents an individual mouse. Compilation data from three independent experiments are presented. N=14 for vehicle and PK/[…]-1-150. Horizontal lines represent the mean values. **, p<0.01.

[12] = test system: Enterobacter aerogenes; test: Minimal inhibitory concentration (MIC) assay; assay type: cell-based; conditions: Klebsiella aerogenes, B medium
[13] = test system: S. aureus DSM 4910 (NCTC 8325) biofilm; test: Minimum biofilm eradication concentration (MBEC) assay; assay type: cell-based
Description: To each well of a flat-bottomed 96-well plate (BD Biosciences, BD 351172) 200 μL of overnight culture of bacteria diluted 1:100 in media is added. Plates are incubated for 24 hours at 37° C. to establish biofilms. After 24 hours, the wells are carefully emptied by inverting the plate and gently shaking. A pre-mixed solution of media and compound stock solution is added to each well and plates are incubated at 37° C. […] 100 μL of supernatant from each well are transferred to a fresh 96-well flat bottomed plate and the OD at 595 nm is measured using a plate reader (POLARstar Omega, BMG Labtech). Concentrations of compound yielding a regrown OD of less than 0.1 correspond to the MBEC. Six replicates are completed for each concentration of compound as well as positive and negative controls. […] DMSO was used as negative control compound, Oxacillin was used as positive control compound. Levels of crystal violet retained were measured spectrophotometrically at an OD of 595 nm. Concentrations of compound yielding a regrown OD of less than 0.1 correspond to the MBEC. Six replicates are completed for each concentration of compound as well as controls. […] Levels of crystal violet retained were measured spectrophotometrically at an OD of 595 nm. […]

SMILES	MIC [1]	IC50 ([1]; Staphylococcus aureus, NCTC8325, inhibition of bacterial growth of S. aureus NCTC 8325, obtained by MIC assay)	MIC [2]	thigh bacterial load reduction [3]	MIC [4]	cytotoxicity (MTT) [5]	MIC [6]	MIC [7]	MIC [8]	MIC [9]	MIC [10]	reduction of bacterial load in heart [11]	reduction of bacterial load in liver [11]	MIC [12]	biofilm eradication effect ([13]; S. aureus DSM 4910, after 20 h of compound treatment)	biofilm eradication effect ([13]; S. aureus DSM 4910, after 70 h of compound treatment)
O=C(Nc1ccc2c(c1)OC(F)(F)O2)Nc1ccc(Cl)c(C(F)(F)F)c1 [Example 4, 1-(4-Chloro-3-(trifluoromethyl)phenyl)-3-(2,2-difluorobenzo[d][1,3]dioxol-5-yl)urea]	0.3 µM (≈ 0.118 µg/mL)	300 nM	0.3 µM (≈ 0.118 µg/mL)	1 log10 cfu/g thigh	> 100 µM	at concentrations higher compared to the antibacterial MICs	0.3 µM (≈ 0.118 µg/mL)	10 µM (≈ 3.95 µg/mL)	0.3 µM (≈ 0.118 µg/mL)	0.3 µM (≈ 0.118 µg/mL)	1 µM (≈ 0.395 µg/mL)	2 log cfu	2 log cfu	> 100 µM	strongest effect	most potent effects
CNC(=O)c1cc(Oc2ccc(NC(=O)Nc3ccc(Cl)c(C(F)(F)F)c3)cc2)ccn1 [Sorafenib, reference compound]	3 µM (≈ 1.39 µg/mL)	–	3 µM (≈ 1.39 µg/mL)	–	> 100 µM	–	3 µM (≈ 1.39 µg/mL)	> 100 µM	5 µM (≈ 2.32 µg/mL)	5 µM (≈ 2.32 µg/mL)	6 µM (≈ 2.79 µg/mL)	–	–	> 100 µM	–	–
